This note sets out measurements from ChEMBL document CHEMBL1201862, “PubChem BioAssay data set” (2004).

Among the test systems are SW-620; SNB-19; OVCAR-8; SK-OV-3; CCRF-CEM; NCI-H23; COLO 205; HCC 2998; K562; UO-31; ACHN; NCI-H460; HOP-62; SNB-75; HCT-15.
Assay in all cases: inhibition of tumour cell growth, NCI panel, 48 h

Structures are written as SMILES.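 Test compounds were applied to cells in 96-well plates for 48 hours at 5 doses. Abbreviation: GI50, concentration required for 50% inhibition of growth.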 Active and inactive are the calls of the source. Rule as the data show it: active = GI50 up to about 1.1 µM and inactive = higher.

`O=C(C/C(=N\NC(=O)C[n+]1ccccc1)C(=O)Nc1nc2ccc([N+](=O)[O-])cc2s1)CC(c1ccccc1)c1c(O)c2ccccc2oc1=O` (stereo not drawn): the GI50 in the assay on SW-620, in the assay with SNB-19, in the assay on OVCAR-8, in the assay on SK-OV-3, with CCRF-CEM and in the assay on NCI-H23 was > 100 µM (inactive) throughout. The GI50 with COLO 205 is > 100 µM (inactive); in the assay on HCC 2998 it was > 100 µM (inactive); in the assay with K562, > 100 µM (inactive); in the assay on UO-31 it was 67.5 µM (inactive); in the assay with ACHN, > 100 µM (inactive); in the assay with NCI-H460, > 100 µM (inactive). For the same compound, the GI50 in the assay with HOP-62 was > 100 µM (inactive).

Turning to `N#CC(C(=O)C(=O)Nc1ccc(Cl)cc1)c1ccccc1` (stereo not drawn), the GI50 in the assay on SW-620 is > 100 µM (inactive); in the assay with SNB-19 it was > 100 µM (inactive); in the assay on SK-OV-3, > 100 µM (inactive); in the assay with CCRF-CEM, > 100 µM (inactive); in the assay with NCI-H23 it was > 100 µM (inactive); in the assay with COLO 205, 93.1 µM (inactive). Also, the GI50 in the assay with HCC 2998, with K562, with SNB-75, in the assay with UO-31, in the assay with ACHN and in the assay with NCI-H460 was > 100 µM (inactive) in each case. In addition, the GI50 in the assay on HCT-15 was > 100 µM; in the assay on HOP-62, 85.1 µM (inactive).

On to `COC(=O)C1=Cc2cc3c(cc2[C@H](c2ccc4c(c2)OCO4)C1C(=O)OC)OCO3` (stereo partly drawn), for which the GI50 was 71.3 µM (inactive) with SW-620; > 100 µM (inactive) in the assay on SNB-19; > 100 µM (inactive) with OVCAR-8; > 100 µM (inactive) with SK-OV-3; > 100 µM (inactive) in the assay on CCRF-CEM; > 100 µM (inactive) in the assay on NCI-H23. Further, the GI50 in the assay on COLO 205 is 37.8 µM (inactive); with HCC 2998 it was > 100 µM (inactive); with K562, 53.5 µM (inactive); in the assay with SNB-75, 44.8 µM (inactive); with UO-31, > 100 µM (inactive); with ACHN, 43.9 µM (inactive). Further, the GI50 was 89.9 µM (inactive) in the assay with NCI-H460, > 100 µM in the assay with HCT-15 and > 100 µM (inactive) in the assay with HOP-62.

On to `c1ccc(CSc2nc3ccccc3nc2-c2cccs2)cc1`, for which the GI50 was > 100 µM (inactive) in the assay with SNB-19; > 100 µM (inactive) in the assay on OVCAR-8; > 100 µM (inactive) in the assay on SK-OV-3; 92.9 µM (inactive) in the assay on CCRF-CEM; > 100 µM (inactive) with NCI-H23; > 100 µM (inactive) in the assay on COLO 205. Further, the GI50 in the assay on HCC 2998, with K562, with SNB-75, with UO-31, in the assay on ACHN and in the assay with NCI-H460 was > 100 µM (inactive) in each case. Moreover, the figures for the GI50 with HCT-15 and with HOP-62 were > 100 µM and > 100 µM (inactive), respectively.

For `CC(Oc1ccc(OCC2CCCCC2)cc1)C(N)=O` (stereo not drawn), the GI50 in the assay with SW-620, with OVCAR-8, in the assay on SK-OV-3, in the assay on CCRF-CEM, in the assay with NCI-H23 and with K562 was > 100 µM (inactive) each time. The GI50 was > 100 µM (inactive) with SNB-75; > 100 µM (inactive) with UO-31; > 100 µM (inactive) with ACHN; > 100 µM (inactive) in the assay with NCI-H460; > 100 µM in the assay on HCT-15.

As for `CCOC(=O)C(Cc1c(C=O)[nH]c2ccccc12)(NC(=O)c1ccccc1)C(=O)OCC`, the GI50 in the assay with SW-620 is 14.2 µM (inactive); in the assay on SNB-19, 4.93 µM (inactive); in the assay on OVCAR-8, 19.1 µM (inactive); with SK-OV-3, 23.9 µM (inactive); with CCRF-CEM it was 6.87 µM (inactive); in the assay with NCI-H23, 13.7 µM (inactive). Further, the GI50 with COLO 205 was 18.8 µM (inactive); with HCC 2998, 12.2 µM (inactive); in the assay with K562, 6.46 µM (inactive); in the assay on UO-31 it was 16.1 µM (inactive); in the assay with ACHN, 14.4 µM (inactive); in the assay with NCI-H460 it was 24.3 µM (inactive). In addition, the GI50 with HCT-15 was 6.7 µM.

`O=C(/C=C/c1ccc(O)c(O)c1)OC1C[C@@](O)(C(=O)O)C[C@@H](O)[C@H]1OC(=O)/C=C/c1ccc(O)c(O)c1` (stereo partly drawn): the GI50 in the assay with SW-620, in the assay with OVCAR-8, in the assay on SK-OV-3, with CCRF-CEM, in the assay with NCI-H23 and in the assay on COLO 205 was > 100 µM (inactive) each time. The GI50 in the assay on HCC 2998 was > 100 µM (inactive); in the assay on K562 it was > 100 µM (inactive); in the assay with UO-31, > 100 µM (inactive); in the assay on ACHN it was > 100 µM (inactive); in the assay with NCI-H460, > 100 µM (inactive); in the assay on HCT-15, > 100 µM. Besides, in the assay on HOP-62, the GI50 is > 100 µM (inactive).

For `Cc1nc(=O)n2c(C)n[nH]c2c1C(=O)O`, the GI50 with SW-620, in the assay with OVCAR-8, in the assay on SK-OV-3, with CCRF-CEM, with NCI-H23 and in the assay with COLO 205 was > 100 µM (inactive) each time. Further, the GI50 with K562 was > 100 µM (inactive); in the assay on UO-31, > 100 µM (inactive); in the assay with ACHN, > 100 µM (inactive); with NCI-H460, > 100 µM (inactive); in the assay on HCT-15, > 100 µM; in the assay with HOP-62, > 100 µM (inactive).

With `Cc1c2ccccc2cc2ccc3oc([N+](=O)[O-])cc3c12`, the GI50 in the assay with SW-620, in the assay on SNB-19, with OVCAR-8, with SK-OV-3, in the assay with CCRF-CEM and in the assay on COLO 205 was > 100 µM (inactive) each time. For the same compound, the GI50 in the assay on HCC 2998 was > 100 µM (inactive); in the assay with K562, > 100 µM (inactive); with SNB-75 it was > 100 µM (inactive); in the assay on UO-31, > 100 µM (inactive); in the assay with ACHN, 4.73 µM (inactive); in the assay on NCI-H460, 6.19 µM (inactive). Further, the GI50 in the assay on HCT-15 is > 100 µM; in the assay with HOP-62 it was > 100 µM (inactive).

With `CCOC(=O)C(c1ccsc1)P(=O)(OCC)OCC` (stereo not drawn), the GI50 in the assay on SW-620 is 15.4 µM (inactive); with SNB-19, 21.5 µM (inactive); in the assay on OVCAR-8 it was 16.6 µM (inactive); with SK-OV-3, 23 µM (inactive); in the assay with NCI-H23 it was 16 µM (inactive); with COLO 205, 13.3 µM (inactive). Moreover, the GI50 in the assay on HCC 2998 was 19.5 µM (inactive); in the assay with SNB-75, 24.1 µM (inactive); with UO-31 it was 15 µM (inactive); with ACHN it was 19.6 µM (inactive); with NCI-H460 it was 14.9 µM (inactive); in the assay with HCT-15, 15 µM. Also, the GI50 with HOP-62 is 28.1 µM (inactive).

`CN(C)CCCn1cnc2ncccc2c1=O`: the GI50 in the assay with SW-620, in the assay on SNB-19, with OVCAR-8, with SK-OV-3, with CCRF-CEM and with NCI-H23 was > 100 µM (inactive) each time. In addition, the GI50 in the assay with COLO 205 was 55.1 µM (inactive); with HCC 2998, > 100 µM (inactive); in the assay on K562 it was > 100 µM (inactive); with SNB-75 it was > 100 µM (inactive); with UO-31, > 100 µM (inactive); with ACHN, > 100 µM (inactive). Also, the GI50 with NCI-H460 and with HOP-62 was > 100 µM (inactive) in each case.

On to `COc1ccc(/C=C2\N=C(c3ccccc3)OC2=O)c(OCc2ccccc2)c1`, for which the GI50 was > 100 µM (inactive) in the assay on SW-620; 28.4 µM (inactive) with SNB-19; 22.9 µM (inactive) in the assay with OVCAR-8; 14.3 µM (inactive) in the assay on CCRF-CEM; 84.9 µM (inactive) with COLO 205; > 100 µM (inactive) in the assay on HCC 2998. Also, the GI50 in the assay on K562 is 32.1 µM (inactive); in the assay on UO-31 it was > 100 µM (inactive); in the assay with ACHN, > 100 µM (inactive); with NCI-H460 it was 53 µM (inactive); in the assay on HOP-62 it was 20.5 µM (inactive).

For the compound `CC1=C(C(=O)Nc2cc(F)c(F)cc2F)C(c2ccc([N+](=O)[O-])cc2)C(C(=O)Nc2cc(F)c(F)cc2F)=C(C)N1`, the GI50 with SW-620 is 48.2 µM (inactive); in the assay with SNB-19, 48.6 µM (inactive); in the assay with OVCAR-8 it was 33.8 µM (inactive); in the assay on SK-OV-3 it was 54.5 µM (inactive); with CCRF-CEM, 16.5 µM (inactive); with NCI-H23, 31.8 µM (inactive). In addition, the GI50 with COLO 205 is 71.4 µM (inactive); in the assay with HCC 2998, 21.4 µM (inactive); in the assay with K562, 24.2 µM (inactive); in the assay with SNB-75, 8.26 µM (inactive); in the assay on UO-31 it was 13.1 µM (inactive); in the assay on ACHN, 27.1 µM (inactive). Further, the GI50 with NCI-H460 was 43.9 µM (inactive); in the assay on HOP-62, 19.6 µM (inactive).

For the compound `O=C1CCC(=O)C12CCc1ccccc12`, the GI50 in the assay with SW-620, with OVCAR-8, in the assay with SK-OV-3, in the assay on NCI-H23, with COLO 205 and in the assay with HCC 2998 was > 100 µM (inactive) each time. Further, the GI50 in the assay on K562 was > 10 µM (inactive); in the assay with SNB-75, > 100 µM (inactive); with UO-31 it was > 100 µM (inactive); in the assay with ACHN, > 100 µM (inactive); in the assay on NCI-H460 it was > 100 µM (inactive); in the assay on HCT-15, > 100 µM. In addition, the GI50 in the assay with HOP-62 was > 100 µM (inactive).

Take `Cc1ccccc1NC(=O)c1cc(-c2ccc([N+](=O)[O-])cc2)nc(S)n1`: the GI50 in the assay on SW-620 is > 100 µM (inactive); in the assay with SNB-19, > 100 µM (inactive); in the assay with OVCAR-8 it was > 100 µM (inactive); in the assay on SK-OV-3 it was > 100 µM (inactive); with CCRF-CEM, > 10 µM (inactive); in the assay with NCI-H23, > 100 µM (inactive). Further, the GI50 in the assay on COLO 205, in the assay with HCC 2998, in the assay on K562, with UO-31, in the assay on ACHN and in the assay on NCI-H460 was > 100 µM (inactive) each time. Moreover, the GI50 is > 100 µM in the assay with HCT-15 and > 100 µM (inactive) in the assay on HOP-62.
